Assay results as given in ChEMBL document CHEMBL2158001, “Lead optimization studies towards the discovery of novel carbamates as potent AChE inhibitors for the potential treatment of Alzheimer's disease” (Bioorg Med Chem, 2012).

Target: T1, Acetylcholinesterase (Mus musculus, UniProt P21836)
T1 sequence (P21836 whole entry): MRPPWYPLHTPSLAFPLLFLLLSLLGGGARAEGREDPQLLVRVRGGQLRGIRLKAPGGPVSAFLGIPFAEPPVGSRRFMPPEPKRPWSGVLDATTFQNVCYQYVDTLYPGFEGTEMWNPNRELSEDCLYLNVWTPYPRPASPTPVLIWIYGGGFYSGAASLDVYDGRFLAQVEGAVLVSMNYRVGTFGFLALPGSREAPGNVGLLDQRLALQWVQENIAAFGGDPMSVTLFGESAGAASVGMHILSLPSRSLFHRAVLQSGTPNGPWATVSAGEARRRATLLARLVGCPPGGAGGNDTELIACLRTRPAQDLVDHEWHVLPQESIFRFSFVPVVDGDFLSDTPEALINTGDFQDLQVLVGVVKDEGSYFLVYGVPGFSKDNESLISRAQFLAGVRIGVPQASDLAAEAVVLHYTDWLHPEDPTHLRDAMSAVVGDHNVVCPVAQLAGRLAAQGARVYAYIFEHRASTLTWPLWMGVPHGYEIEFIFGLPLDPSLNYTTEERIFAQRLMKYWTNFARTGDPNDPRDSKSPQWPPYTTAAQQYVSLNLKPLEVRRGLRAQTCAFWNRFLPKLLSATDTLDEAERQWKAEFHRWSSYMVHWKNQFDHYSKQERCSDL
Description: Inhibition of Swiss albino mouse RBC AChE after 30 mins by Ellman method

## Cc1ccccc1NC(=O)Oc1ccc2c(c1)CCCN2Cc1ccccc1
  IC50: 14.3 µM

## O=C(Nc1ccccc1F)Oc1ccc2c(c1)CCCN2Cc1ccc(Cl)cc1Cl
  IC50: 2.56 µM

## Cc1cccc(NC(=O)Oc2ccc3c(c2)CCCN3Cc2ccc(Cl)cc2Cl)c1
  IC50: 0.7 µM

## Cc1ccc(NC(=O)Oc2ccc3c(c2)CCCN3Cc2ccc(Cl)cc2Cl)cc1
  IC50: 851 µM

## Cc1ccccc1NC(=O)Oc1ccc2c(c1)CCCN2Cc1ccc(Cl)cc1Cl
  IC50: 2.57 µM

## CCCCCCCNC(=O)Oc1ccc2c(c1)CCCN2Cc1ccc(Cl)cc1Cl
  IC50: 105 µM

## O=C(Nc1cccc(Br)c1)Oc1ccc2c(c1)CCCN2Cc1ccc(Cl)cc1Cl
  IC50: 140 µM

## O=C(Nc1ccc(Cl)cc1)Oc1ccc2c(c1)CCCN2Cc1ccc(Cl)cc1Cl
  IC50: 3480 µM

## O=C(Nc1ccc(F)cc1)Oc1ccc2c(c1)CCCN2Cc1ccc(Cl)cc1Cl
  IC50: 89.4 µM

## O=C(Nc1ccccc1Cl)Oc1ccc2c(c1)CCCN2Cc1ccc(Cl)cc1Cl
  IC50: 11.9 µM

## CCCCCCNC(=O)Oc1ccc2c(c1)CCCN2Cc1ccc(Cl)cc1Cl
  IC50: 14.1 µM

## Cc1cccc(NC(=O)Oc2ccc3c(c2)CCCN3Cc2ccccc2)c1
  IC50: 60.2 µM

## COc1ccccc1NC(=O)Oc1ccc2c(c1)CCCN2Cc1ccc(Cl)cc1Cl
  IC50: 13.8 µM

## CCCCCCCCNC(=O)Oc1ccc2c(c1)CCCN2Cc1ccc(Cl)cc1Cl
  IC50: > 10000 µM

## O=C(Nc1cccc(Cl)c1)Oc1ccc2c(c1)CCCN2Cc1ccc(Cl)cc1Cl
  IC50: 211 µM
